{"source": "patent US8580308B2", "about": "“Modafinil pharmaceutical compositions” (Cephalon, Inc., priority 2002, dated 2013)", "key": {"[1]": {"conditions": "mice, single administration; cited from earlier work"}, "density of modafinil": {"assay": "density of modafinil", "type": "physicochemical", "from_the_text": "Although primarily described herein with respect to “cumulative total number of particles,” it is within the ability of one skilled in the art to also make blends based upon weight of the portions used from each of the discrete lots, as detailed above. In particular, the density of modafinil is about 0.50 grams per cubic centimeter (bulk density) and about 0.60 grams per cubic centimeter (tap density). Using the density information, the statistical information that is described herein, and assuming the particles of modafinil are spherical, accurate determinations of the appropriate weight of particles in each discrete lot can be made. Similar calculations can be made with respect to the surface area of the particles."}, "[2]": {"conditions": "monkeys, single administration; cited from earlier work"}, "[3]": {"conditions": "humans; cited from earlier work"}}}
{"smiles": "NC(=O)C[S+]([O-])C(c1ccccc1)c1ccccc1", "note": "(centres unmarked) [modafinil, 2-(benzhydrylsulfinyl)acetamide]", "values": [{"measurement": "locomotor activity", "setting": "[1]", "result": "increased locomotor activity"}, {"measurement": "bulk density", "setting": "density of modafinil", "result": "about 0.50 grams per cubic centimeter"}, {"measurement": "tap density", "setting": "density of modafinil", "result": "about 0.60 grams per cubic centimeter"}, {"measurement": "nocturnal activity", "setting": "[2]", "result": "increased nocturnal activity"}, {"measurement": "treatment of idiopathic hypersomnia and narcolepsy", "setting": "[3]", "result": "successfully tested"}]}
